{"source": "patent US20150056273A1", "about": "(National Taiwan University of Science and Technology, priority 2013, published 2015)", "key": {"[1]": {"test": "percutaneous penetration experiments with different microbubble sizes, pigskin", "assay_type": "in vitro ADME, pig", "conditions": "microbubbles 1 minute, then dye with ultrasound 15 minutes", "description": "In another experiment, the skin tissue simulator formed form the agar gel is replaced by a pigskin of 2 mm thickness. The perfusion zone was placed on the pigskin for conducting the percutaneous penetration experiments, and the experimental system and the methods were similar to the penetration-through experiments of the agar stimulator. The experiment also use different ultrasound energy for 1 W/cm^2, 2 W/cm^2 and 3 W/cm^2, and the particle sizes of the microbubbles in the microbubble ultrasonic contrast agent are about 1.4 μm, 2.1 μm, and 3.5 μm. […] Then the microbubble ultrasonic contrast agent was washed away. The dye solution was placed in the perfusion zone and the ultrasound was applied for 15 minutes to force the dye diffused into the tissue simulator."}, "[2]": {"test": "penetration-through experiments with different microbubble sizes, agar tissue simulator", "assay_type": "in vitro ADME", "conditions": "1 minute, 0.25 wt % Evans blue, microbubbles 2×10^8 particles/ml", "description": "The percutaneous penetration experiments with different microbubble diameters are also been made. […] A skin tissue simulator 20 is formed of 0.3 wt % agarose gel (agar gel). The mechanical oscillation wave source may be an ultrasound probe 40. The ultrasound probe 40 is mounted on the dropper rack 22 and the ultrasound probe 40 is set at a distance of about 5 mm from the tissue stimulator 20. The conductive gel 35 is disposed on the probe 40 so that the conductive gel 35 is located apart from the tissue stimulator 20 with a distance of about 3 mm. The perfusion zone 33 is placed above the tissue stimulator 20 and the conductive gel 30 is located outside of the perfusion zone 33.\nAnd the dye for observing the penetration depth in the skin tissue simulator is Evans blue which mixed with water to form a 0.25 wt % dye solution.\nThe surface of the tissue stimulator is rinsed three times (1000 μl). The control group utilized the saline solution of 0.25 wt % Evans blue dye. […] After the dye placed in the perfusion zone for a predetermined time, the penetration depth of the dye of the tissue stimulator was observed by the microscope and the results were processed by MATLAB program to calculate the dye penetration depth.\nIn the following experiments, different parameters were changed to find the best conditions for the penetration depth of the dye. […] And each group further had three experiments with the different ultrasound energy for 1 W/cm^2, 2 W/cm^2, and 3 W/cm^2. The ultrasound applied for 1 minute."}}, "data": [{"smiles": "Cc1cc(-c2ccc(/N=N/c3ccc4c(S(=O)(=O)O)cc(S(=O)(=O)O)c(N)c4c3O)c(C)c2)ccc1/N=N/c1ccc2c(S(=O)(=O)O)cc(S(=O)(=O)O)c(N)c2c1O", "note": "[U only, Evans blue]", "values": [{"measurement": "penetration depth of the dye", "setting": "[1]; ultrasound 1 W (1 W/cm^2)", "result": 12.78, "unit": "μm"}, {"measurement": "penetration depth of the dye", "setting": "[1]; ultrasound 2 W (2 W/cm^2)", "result": 14.17, "unit": "μm"}, {"measurement": "penetration depth of the dye", "setting": "[1]; ultrasound 3 W (3 W/cm^2)", "result": 15.5, "unit": "μm"}, {"measurement": "penetration depth of the dye", "setting": "[2]; ultrasound 1 W (1 W/cm^2)", "result": "373 ± 23", "unit": "μm"}, {"measurement": "penetration depth of the dye", "setting": "[2]; ultrasound 2 W (2 W/cm^2)", "result": "354 ± 14", "unit": "μm"}, {"measurement": "penetration depth of the dye", "setting": "[2]; ultrasound 3 W (3 W/cm^2)", "result": "379 ± 20", "unit": "μm"}]}]}
